# Measured values published in ChEMBL document CHEMBL3244329, “Nicotinamide adenine dinucleotide phosphate-decanaldehyde adduct as an inhibitor of beef brain NADP-linked aldehyde reductase” (J Med Chem, 1979).
# Biological target: Aldo-keto reductase family 1 member A1 (Bos taurus, UniProt Q3ZCJ2)
# Test: Inhibition of beef brain NADP-dependent aldehyde reductase using p-nitrobenzaldehyde by competitive inhibition assay
# Aldo-keto reductase family 1 member A1, sequence (Q3ZCJ2 2-325 limits assumed): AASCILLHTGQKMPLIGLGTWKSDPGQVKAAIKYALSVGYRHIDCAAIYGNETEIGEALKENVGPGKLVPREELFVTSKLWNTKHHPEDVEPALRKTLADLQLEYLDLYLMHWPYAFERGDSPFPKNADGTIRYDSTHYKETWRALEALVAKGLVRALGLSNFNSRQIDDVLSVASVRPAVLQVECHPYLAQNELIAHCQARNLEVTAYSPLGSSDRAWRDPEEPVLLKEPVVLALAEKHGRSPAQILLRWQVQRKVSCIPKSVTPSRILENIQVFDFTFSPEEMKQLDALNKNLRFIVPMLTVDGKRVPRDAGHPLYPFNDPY
row,Ki [µM],SMILES
1,13,CCC1C(O)NC(=O)C2=CN([C@@H]3O[C@H](COP(=O)(O)O[C@H]4[C@@H](O)[C@H](n5cnc6c(N)ncnc65)O[C@@H]4COP(=O)(O)OP(=O)(O)O)[C@@H](O)[C@H]3O)C=C[C@H]21 (some centres undefined)
2,2.3,CCCCCCCCC1C(O)NC(=O)C2=CN([C@@H]3O[C@H](COP(=O)(O)O[C@H]4[C@@H](O)[C@H](n5cnc6c(N)ncnc65)O[C@@H]4COP(=O)(O)OP(=O)(O)O)[C@@H](O)[C@H]3O)C=C[C@H]21 (some centres undefined)
3,7,Nc1ncnc2c1ncn2[C@@H]1O[C@H](COP(=O)(O)OP(=O)(O)O)[C@@H](OP(=O)(O)OC[C@H]2O[C@@H](N3C=C[C@@H]4C(=C3)C(=O)NC(O)C4Cc3ccccc3)[C@H](O)[C@@H]2O)[C@H]1O (some centres undefined)
4,5.1,Nc1ncnc2c1ncn2[C@@H]1O[C@H](COP(=O)(O)OP(=O)(O)O)[C@@H](OP(=O)(O)OC[C@H]2O[C@@H](N3C=C[C@@H]4C(=C3)C(=O)NC(O)C4c3ccccc3)[C@H](O)[C@@H]2O)[C@H]1O (some centres undefined)
